The values that follow come from ChEMBL document CHEMBL5291721, “A preclinical secondary pharmacology resource illuminates target-adverse drug reaction associations of marketed drugs” (Nat Commun, 2023).

Targets include Cannabinoid receptor 1 (Homo sapiens, UniProt P21554); Melanocortin receptor 4 (Homo sapiens, UniProt P32245); Mu-type opioid receptor (Homo sapiens, UniProt P35372).
Assay [1] concerns the target T1, Alpha-1A adrenergic receptor (Homo sapiens, UniProt P35348).
T1 sequence (P35348 whole entry): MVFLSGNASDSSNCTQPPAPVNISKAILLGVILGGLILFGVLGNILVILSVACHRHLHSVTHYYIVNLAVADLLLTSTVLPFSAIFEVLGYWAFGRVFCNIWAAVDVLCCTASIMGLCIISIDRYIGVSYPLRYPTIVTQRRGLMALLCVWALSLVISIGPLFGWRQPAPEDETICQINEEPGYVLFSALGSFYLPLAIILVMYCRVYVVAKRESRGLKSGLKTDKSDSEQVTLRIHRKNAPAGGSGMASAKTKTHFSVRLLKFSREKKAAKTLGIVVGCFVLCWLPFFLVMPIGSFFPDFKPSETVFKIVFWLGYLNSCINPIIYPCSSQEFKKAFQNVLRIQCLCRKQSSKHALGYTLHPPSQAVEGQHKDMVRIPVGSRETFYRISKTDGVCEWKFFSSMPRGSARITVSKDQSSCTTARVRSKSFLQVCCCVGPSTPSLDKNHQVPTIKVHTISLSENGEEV

In assay [2] the target is Beta-2 adrenergic receptor (Homo sapiens, UniProt P07550). It is filed as functional, cell-based.
Beta-2 adrenergic receptor, sequence (P07550 whole entry): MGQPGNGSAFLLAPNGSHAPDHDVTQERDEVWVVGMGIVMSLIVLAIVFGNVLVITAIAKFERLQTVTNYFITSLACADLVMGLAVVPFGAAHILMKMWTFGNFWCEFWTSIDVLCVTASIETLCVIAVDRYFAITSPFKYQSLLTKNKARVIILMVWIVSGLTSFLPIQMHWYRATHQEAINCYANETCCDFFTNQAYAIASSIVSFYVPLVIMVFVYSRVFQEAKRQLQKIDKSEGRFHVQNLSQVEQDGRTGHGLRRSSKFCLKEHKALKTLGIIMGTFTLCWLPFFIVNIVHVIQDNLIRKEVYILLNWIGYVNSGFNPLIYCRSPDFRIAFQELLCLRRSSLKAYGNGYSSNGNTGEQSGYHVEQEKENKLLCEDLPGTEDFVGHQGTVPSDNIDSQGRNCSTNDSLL
The target of assay [3] is Beta-3 adrenergic receptor (Homo sapiens, UniProt P13945).
Beta-3 adrenergic receptor, sequence (P13945 whole entry): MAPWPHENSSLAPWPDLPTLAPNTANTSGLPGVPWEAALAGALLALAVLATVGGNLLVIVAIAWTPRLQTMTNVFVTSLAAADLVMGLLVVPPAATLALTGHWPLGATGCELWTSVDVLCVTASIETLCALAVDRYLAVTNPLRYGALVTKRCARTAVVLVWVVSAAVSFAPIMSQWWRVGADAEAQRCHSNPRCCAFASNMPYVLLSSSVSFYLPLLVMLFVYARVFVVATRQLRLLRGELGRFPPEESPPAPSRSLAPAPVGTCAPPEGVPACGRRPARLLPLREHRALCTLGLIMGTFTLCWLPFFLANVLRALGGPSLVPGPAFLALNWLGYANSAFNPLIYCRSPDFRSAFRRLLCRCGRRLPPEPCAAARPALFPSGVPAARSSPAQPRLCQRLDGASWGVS
Assay [4] addresses T2, Endothelin receptor type B (Homo sapiens, UniProt P24530).
T2 sequence (P24530 whole entry): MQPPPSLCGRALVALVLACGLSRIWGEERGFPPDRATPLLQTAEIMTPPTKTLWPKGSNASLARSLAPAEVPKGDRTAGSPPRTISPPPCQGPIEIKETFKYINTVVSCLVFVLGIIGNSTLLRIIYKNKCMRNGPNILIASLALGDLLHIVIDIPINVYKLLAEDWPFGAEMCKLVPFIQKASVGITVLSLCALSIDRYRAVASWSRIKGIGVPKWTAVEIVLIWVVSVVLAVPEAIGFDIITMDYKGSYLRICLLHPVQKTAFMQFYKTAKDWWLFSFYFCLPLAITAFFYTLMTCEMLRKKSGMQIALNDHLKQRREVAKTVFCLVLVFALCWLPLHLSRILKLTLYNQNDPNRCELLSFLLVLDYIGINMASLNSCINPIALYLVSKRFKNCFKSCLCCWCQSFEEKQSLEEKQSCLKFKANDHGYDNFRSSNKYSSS

Assay [5] concerns the target Neurotensin receptor type 1 (Homo sapiens, UniProt P30989).
The target of assay [6] is 5-hydroxytryptamine receptor 2B (Homo sapiens, UniProt P41595).
5-hydroxytryptamine receptor 2B, sequence (P41595 whole entry): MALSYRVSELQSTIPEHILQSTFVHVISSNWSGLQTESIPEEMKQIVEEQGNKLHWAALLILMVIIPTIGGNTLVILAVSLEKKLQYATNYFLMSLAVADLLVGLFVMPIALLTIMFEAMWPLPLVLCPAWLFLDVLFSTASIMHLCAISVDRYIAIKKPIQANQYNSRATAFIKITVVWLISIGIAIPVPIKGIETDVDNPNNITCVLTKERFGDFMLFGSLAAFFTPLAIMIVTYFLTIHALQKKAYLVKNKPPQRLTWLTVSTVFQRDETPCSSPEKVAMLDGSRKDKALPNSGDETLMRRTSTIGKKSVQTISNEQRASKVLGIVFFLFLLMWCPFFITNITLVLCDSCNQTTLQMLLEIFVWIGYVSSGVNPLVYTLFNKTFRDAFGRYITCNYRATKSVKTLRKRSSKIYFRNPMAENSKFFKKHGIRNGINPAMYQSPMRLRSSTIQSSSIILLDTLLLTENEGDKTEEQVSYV

A value given as a limit tells only on which side of the number the result lay.
Further: assay procedure not described here.

Cannabinoid receptor 1, sequence (P21554 whole entry): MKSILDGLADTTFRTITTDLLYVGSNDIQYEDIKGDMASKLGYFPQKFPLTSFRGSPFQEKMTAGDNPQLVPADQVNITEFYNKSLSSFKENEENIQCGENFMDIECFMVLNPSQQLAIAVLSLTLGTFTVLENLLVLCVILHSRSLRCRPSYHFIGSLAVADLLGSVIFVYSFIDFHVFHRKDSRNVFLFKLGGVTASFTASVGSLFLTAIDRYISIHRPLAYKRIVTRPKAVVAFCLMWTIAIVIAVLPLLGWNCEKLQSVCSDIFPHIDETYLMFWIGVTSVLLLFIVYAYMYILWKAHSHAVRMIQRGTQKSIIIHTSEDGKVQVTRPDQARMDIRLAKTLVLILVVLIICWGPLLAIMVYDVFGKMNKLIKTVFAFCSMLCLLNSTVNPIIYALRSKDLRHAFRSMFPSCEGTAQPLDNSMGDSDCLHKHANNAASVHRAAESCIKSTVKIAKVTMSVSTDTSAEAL
Mu-type opioid receptor, sequence (P35372 whole entry): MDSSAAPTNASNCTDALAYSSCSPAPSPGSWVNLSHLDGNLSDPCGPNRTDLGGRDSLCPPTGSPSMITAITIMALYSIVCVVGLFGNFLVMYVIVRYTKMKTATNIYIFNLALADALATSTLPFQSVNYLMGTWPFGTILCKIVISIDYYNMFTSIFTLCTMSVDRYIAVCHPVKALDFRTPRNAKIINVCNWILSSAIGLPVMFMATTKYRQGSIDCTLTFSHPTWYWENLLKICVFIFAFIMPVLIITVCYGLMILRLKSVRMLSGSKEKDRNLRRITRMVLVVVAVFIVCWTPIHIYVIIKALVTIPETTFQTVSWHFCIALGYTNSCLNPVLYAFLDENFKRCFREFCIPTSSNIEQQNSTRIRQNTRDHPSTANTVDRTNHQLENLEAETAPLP
Melanocortin receptor 4, sequence (P32245 whole entry): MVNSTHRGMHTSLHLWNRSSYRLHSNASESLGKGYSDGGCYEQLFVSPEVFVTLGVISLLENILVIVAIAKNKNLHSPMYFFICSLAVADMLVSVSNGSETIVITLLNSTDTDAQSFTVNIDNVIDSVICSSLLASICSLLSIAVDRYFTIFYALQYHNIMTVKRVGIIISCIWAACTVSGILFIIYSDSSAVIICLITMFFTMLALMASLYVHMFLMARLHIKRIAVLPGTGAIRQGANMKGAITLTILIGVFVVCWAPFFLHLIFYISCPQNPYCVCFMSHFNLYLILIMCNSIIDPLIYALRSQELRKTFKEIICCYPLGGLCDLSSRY
Neurotensin receptor type 1, sequence (P30989 whole entry): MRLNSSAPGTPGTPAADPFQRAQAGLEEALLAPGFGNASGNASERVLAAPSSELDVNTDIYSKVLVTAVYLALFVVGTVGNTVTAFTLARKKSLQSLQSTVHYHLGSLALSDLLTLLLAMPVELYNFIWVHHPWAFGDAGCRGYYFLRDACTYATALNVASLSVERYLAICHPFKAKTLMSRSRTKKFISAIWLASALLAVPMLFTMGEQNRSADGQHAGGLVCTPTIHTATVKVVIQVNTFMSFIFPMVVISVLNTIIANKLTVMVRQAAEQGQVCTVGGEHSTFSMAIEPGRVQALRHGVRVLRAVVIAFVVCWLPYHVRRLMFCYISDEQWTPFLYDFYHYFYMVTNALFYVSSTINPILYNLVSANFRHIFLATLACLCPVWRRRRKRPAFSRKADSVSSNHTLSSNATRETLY

In general, AC50 refers to the concentration at which the activity in the assay is half-maximal. A low value points to greater potency. Regarding `CN1CC(=O)N2[C@H](c3ccc4c(c3)OCO4)c3[nH]c4ccccc4c3C[C@@H]2C1=O`, the AC50 in assay [1] is over 10 µM; in [2], over 30 µM; at Cannabinoid receptor 1, over 10 µM; on Melanocortin receptor 4, over 30 µM; on Mu-type opioid receptor, over 30 µM.

For the compound `C=C1CC[C@@]2(O)[C@H]3Cc4ccc(O)c5c4[C@@]2(CCN3CC2CC2)[C@H]1O5`, the AC50 in assay [2] was over 30 µM.

As to `Nc1ncnc2c1ncn2[C@@H]1O[C@H](COP(=O)(O)O)[C@@H](O)[C@H]1O` [ADENOSINE PHOSPHATE], the AC50 in [2] stood at 9.5 µM.

Regarding `CC(=O)OCC(=O)[C@@]12OC3(CCCC3)O[C@@H]1C[C@H]1[C@@H]3CCC4=CC(=O)C=C[C@]4(C)[C@@]3(F)[C@@H](O)C[C@@]12C` [AMCINONIDE], the AC50 in [1] was over 10 µM; at Cannabinoid receptor 1, 4.25 µM; on Melanocortin receptor 4 it was over 10 µM; at Mu-type opioid receptor it was over 30 µM.

Compound `CCCC(CCC)C(=O)O[C@H]1C[C@H]2CC[C@@H](C1)[N+]2(C)C` [ANISOTROPINE] had an AC50 in assay [2] of over 30 µM.

Regarding `CC(C)c1c(C(=O)Nc2ccccc2)c(-c2ccccc2)c(-c2ccc(F)cc2)n1CC[C@@H](O)C[C@@H](O)CC(=O)O` [ATORVASTATIN], the AC50 in [1] was over 10 µM; in assay [2] it was over 30 µM; in assay [3] it was over 30 µM; at Cannabinoid receptor 1, over 10 µM; in assay [4], over 30 µM; on Melanocortin receptor 4, over 30 µM. This compound had an AC50 in [5] of over 30 µM.

On to `CCCCCOC(=O)Nc1nc(=O)n([C@@H]2O[C@H](C)[C@@H](O)[C@H]2O)cc1F` [CAPECITABINE], for which, in [2], the half-maximal activity concentration (AC50) is over 30 µM.

On to `CC(C)C(=O)OCC(=O)[C@@]12O[C@H](C3CCCCC3)O[C@@H]1C[C@H]1[C@@H]3CCC4=CC(=O)C=C[C@]4(C)[C@H]3[C@@H](O)C[C@@]12C` [CICLESONIDE], for which the AC50 in assay [1] is over 10 µM; on Cannabinoid receptor 1, 12.1 µM; at Melanocortin receptor 4, over 10 µM; at Mu-type opioid receptor, over 30 µM.

In the case of `CN1C(=O)CC(=O)N(c2ccccc2)c2cc(Cl)ccc21` [CLOBAZAM], the AC50 in assay [1] was over 10 µM; on Cannabinoid receptor 1, over 10 µM; on Melanocortin receptor 4, over 10 µM; on Mu-type opioid receptor it was over 30 µM.

For the compound `CCCCOc1cc(C(=O)NCCN(CC)CC)c2ccccc2n1` [DIBUCAINE], the AC50 is over 10 µM in assay [1], over 10 µM at Cannabinoid receptor 1, over 30 µM at Melanocortin receptor 4 and over 30 µM at Mu-type opioid receptor.

Take `CC(=O)O[C@@]12CO[C@@H]1C[C@H](O)[C@@]1(C)C(=O)[C@H](O)C3=C(C)[C@@H](OC(=O)[C@H](O)[C@@H](NC(=O)OC(C)(C)C)c4ccccc4)C[C@@](O)([C@@H](OC(=O)c4ccccc4)[C@H]21)C3(C)C` [DOCETAXEL ANHYDROUS]: the AC50 (in [1]; at Cannabinoid receptor 1; on Melanocortin receptor 4) was over 30 µM in each case.

As for `C#CC1(OC(N)=O)CCCCC1` [ETHINAMATE], the half-maximal activity concentration (AC50) in assay [1] is over 10 µM; at Cannabinoid receptor 1, over 10 µM; on Melanocortin receptor 4, over 10 µM; on Mu-type opioid receptor, over 30 µM.

`COc1c(N2CCNC(C)C2)c(F)cc2c(=O)c(C(=O)O)cn(C3CC3)c12` (stereo not drawn) [GATIFLOXACIN]: the AC50 in assay [1] was over 30 µM; on Cannabinoid receptor 1, over 10 µM; at Melanocortin receptor 4 it was over 10 µM; at Mu-type opioid receptor, over 30 µM.

Take `CCC1(C2=CCCCCC2)C(=O)NC(=O)NC1=O` [HEPTABARBITAL]: the AC50 was over 10 µM in [1], over 10 µM on Cannabinoid receptor 1, over 10 µM at Melanocortin receptor 4 and over 30 µM on Mu-type opioid receptor.

For the compound `O=C(CCCCC(=O)Nc1c(I)cc(I)c(C(=O)O)c1I)Nc1c(I)cc(I)c(C(=O)O)c1I` [IODIPAMIDE], the AC50 in assay [1] was over 30 µM; at Cannabinoid receptor 1 it was over 10 µM; on Melanocortin receptor 4, over 10 µM; at Mu-type opioid receptor, over 30 µM.

On to `COC(=O)C1=C(C)NC(C)=C(C(=O)OC(C)C)C1c1cccc2nonc12` (stereo not drawn) [ISRADIPINE], for which the AC50 is over 30 µM in assay [1], over 10 µM at Cannabinoid receptor 1, over 30 µM at Melanocortin receptor 4 and over 30 µM on Mu-type opioid receptor.

As for `CN1CC[C@]23CCCC[C@H]2[C@H]1Cc1ccc(O)cc13` [LEVORPHANOL], the AC50 on Cannabinoid receptor 1 and on Melanocortin receptor 4 was over 10 µM throughout.

`CCN1CCC[C@H]1CNC(=O)c1cc(S(N)(=O)=O)ccc1OC` [LEVOSULPIRIDE]: the AC50 in assay [1] is 16 µM; in [2], over 30 µM; at Cannabinoid receptor 1 it was over 10 µM; at Melanocortin receptor 4, over 30 µM; on Mu-type opioid receptor, over 30 µM.

Consider `CC/C=C\C/C=C\C/C=C\CCCCCCCC(=O)O` [LINOLENIC ACID], for which the AC50 (in assay [2]; on Mu-type opioid receptor) was over 30 µM throughout.

`O=C(O)Cc1cn(-c2ccccc2)nc1-c1ccc(Cl)cc1` [LONAZOLAC] gave a concentration at half-maximal activity (AC50) in assay [2] of over 30 µM.

Compound `C#C[C@]1(O)CC[C@H]2[C@@H]3CCC4=CCCC[C@@H]4[C@H]3CC[C@@]21C` [LYNESTRENOL] yielded an AC50 in assay [2] of over 30 µM.

Regarding `CC1=CC(=O)c2ccccc2C1=O` [MENADIONE], the AC50 was over 30 µM in assay [1], over 10 µM on Cannabinoid receptor 1, over 10 µM at Melanocortin receptor 4 and over 30 µM at Mu-type opioid receptor.

Compound `Cc1cccc(C)c1NC(=O)C1CCCCN1C` (stereo not drawn) [MEPIVACAINE] showed an AC50 in assay [2] of over 30 µM.

Consider `COc1ccccc1OCC(O)COC(N)=O` (stereo not drawn) [METHOCARBAMOL], for which the AC50 in [1] is over 10 µM; at Cannabinoid receptor 1 it was over 10 µM; on Melanocortin receptor 4 it was over 10 µM; at Mu-type opioid receptor it was over 30 µM.

As for `C[C@H]1C[C@@H]2[C@H]([C@@H](O)C[C@@]3(C)[C@H]2CC[C@]3(O)C(=O)COC(=O)CCC(=O)O)[C@@]2(C)C=CC(=O)C=C12` [METHYLPREDNISOLONE HEMISUCCINATE], the AC50 in assay [2] was over 30 µM.

Turning to `C[C@]12CCC(=O)C=C1CC[C@@H]1[C@@H]2CC[C@@]2(C)[C@H]1CC[C@]2(C)O` [METHYLTESTOSTERONE], the concentration at half-maximal activity (AC50) in assay [2] is over 30 µM.

Regarding `CCCCC(C)(O)C/C=C/[C@H]1[C@H](O)CC(=O)[C@@H]1CCCCCCC(=O)OC` (stereo partly drawn) [MISOPROSTOL], the AC50 in assay [2] was over 30 µM.

For `CCCCCCCCOc1ccccc1C(=O)Nc1ccc(C(=O)OCC[N+](C)(CC)CC)cc1` [OTILONIUM BROMIDE], the AC50 in assay [6] came out at 0.712 µM. In other words, the sub-micromolar range.

For `CN1CCC2=C(C1)C(c1ccccc1)c1ccccc12` (stereo not drawn) [PHENINDAMINE], the AC50 in assay [1] is over 10 µM; at Cannabinoid receptor 1, over 10 µM; at Melanocortin receptor 4, over 10 µM; at Mu-type opioid receptor it was over 30 µM.

`CN1C(=O)CC(c2ccccc2)C1=O` (stereo not drawn) [PHENSUXIMIDE]: the AC50 in [1] is over 10 µM; on Cannabinoid receptor 1, over 10 µM; at Melanocortin receptor 4, over 10 µM; at Mu-type opioid receptor, over 30 µM.

As for `CC(Cc1ccccc1)NCCC(c1ccccc1)c1ccccc1` (stereo not drawn) [PRENYLAMINE], the AC50 in [1] was 0.877 µM; in assay [2] it was over 30 µM; on Cannabinoid receptor 1 it was 7.95 µM; on Melanocortin receptor 4, 6.4 µM; on Mu-type opioid receptor, 1.8 µM.

For `CCN(CC)CCOC(=O)c1ccc(N)cc1` [PROCAINE], the half-maximal activity concentration (AC50) in [1] is over 10 µM; in assay [2] it was over 30 µM; on Cannabinoid receptor 1 it was over 10 µM; at Melanocortin receptor 4, over 30 µM; on Mu-type opioid receptor it was over 30 µM.

As to `CCCOc1ccc(C(=O)OCCN(CC)CC)cc1N` [PROPARACAINE], in assay [2], the AC50 is over 30 µM.

As to `C#CCN[C@@H]1CCc2ccccc21` [RASAGILINE], the AC50 was 20 µM in assay [1], over 30 µM at Cannabinoid receptor 1 and over 30 µM on Melanocortin receptor 4.

With `C1COC(NC(C2CC2)C2CC2)=N1` [RILMENIDINE], the values for the AC50 (in assay [1]; at Melanocortin receptor 4; at Mu-type opioid receptor) were 4.39 µM, over 30 µM and over 30 µM, respectively.

In assay [2], `Nc1nc2ccc(OC(F)(F)F)cc2s1` [RILUZOLE] registered an AC50 of over 30 µM.

In the case of `C#CCN(C)[C@H](C)Cc1ccccc1` [SELEGILINE], the AC50 in assay [1] is 12.7 µM; on Cannabinoid receptor 1, over 10 µM; on Melanocortin receptor 4 it was over 10 µM; on Mu-type opioid receptor it was over 30 µM.

With `CN[C@@H]1[C@H](O)[C@H](NC)[C@H]2O[C@@]3(O)C(=O)C[C@@H](C)O[C@H]3O[C@@H]2[C@H]1O` [SPECTINOMYCIN], the AC50 is over 10 µM in [1], over 10 µM at Cannabinoid receptor 1, over 10 µM at Melanocortin receptor 4 and over 30 µM at Mu-type opioid receptor.

For the compound `CC(=O)NS(=O)(=O)c1ccc(N)cc1` [SULFACETAMIDE], the AC50 in assay [1] is over 10 µM; at Cannabinoid receptor 1, over 10 µM; at Melanocortin receptor 4 it was over 10 µM; on Mu-type opioid receptor, over 30 µM.

The compound `Cc1c(Cl)cccc1Nc1ccccc1C(=O)O` [TOLFENAMIC ACID] had an AC50 in [2] of over 30 µM.
